Test results taken from patent US9040529B2 (Vichem Chemie Kutató Kft., priority 2009, dated 2015).
Where a name gives a salt, the structure may show the parent alone.

Biological target: T1, human CDK9/CyclinT kinase complex (Homo sapiens, UniProt P50750)
T1 construct: purchased Proqinase 0371-0345-1
Experiment: In vitro CDK9/CyclinT assay (IMAP fluorescence polarization kinase assay)
Assay type: biochemical
Conditions: for IC50: 5 nM CDK9/CyclinT, 400 nM TAMRA-Rbtide, 12 μM ATP, 1 hour at room temperature, read-out: CDK9 inhibitory range
Method: In Vitro CDK9/CyclinT Assay
The activity of the compounds described in the present invention can be determined by the following kinase assay, which measures the phosphorylation of a fluorescently-labeled peptide by human CDK9/CyclinT kinase complex by fluorescent polarization using a commercially available IMAP Screening Express Assay Kit (Molecular devices).
CDK9 kinase assays were performed in low protein binding 384-well plates (Corning 3676). Test compounds were diluted in 100% DMSO to 5 mM stock concentration, then further dilutions were made in H2O or 100% DMSO to desirable concentrations.
Each reaction consisted of 5 nM enzyme: CDK9/CyclinT (Proqinase cat#0371-0345-1), 400 nM TAMRA-Rbtide (synthetic 15-mer peptide derived from human retinoblastoma tumor suppressor protein labelled with TAMRA dye, Genecust Europe), 12 μM ATP (=Kmapp, Sigma-Aldrich) and kinase buffer: 20 mM MOPS pH 7 (Sigma-Aldrich), 1 mM DTT (Sigma-Aldrich), 10 mM MgCl2 (Sigma-Aldrich), 0.01% Tween 20 (Sigma-Aldrich).
For each reaction, 4 or 6 μl containing TAMRA-Rbtide, ATP and kianse buffer were combined with 2 μl diluted compound in H2O or 0.028 μl compound in 100% DMSO. The kinase reaction was started by the addition of 2 μl diluted enzyme. The reaction was allowed to run for 1 hours at room temperature. The reaction was stopped by adding 15 μl IMAP beads (1:400 beads in progressive (100% buffer A) 1× buffer). After an additional 1 hours, fluorescent polarization (Ex: 550-10 nm, Em: 590-10 nm, Dich: 561 nm) was measured using an Analyst GT (Molecular devices).

T1 sequence (P50750 whole entry): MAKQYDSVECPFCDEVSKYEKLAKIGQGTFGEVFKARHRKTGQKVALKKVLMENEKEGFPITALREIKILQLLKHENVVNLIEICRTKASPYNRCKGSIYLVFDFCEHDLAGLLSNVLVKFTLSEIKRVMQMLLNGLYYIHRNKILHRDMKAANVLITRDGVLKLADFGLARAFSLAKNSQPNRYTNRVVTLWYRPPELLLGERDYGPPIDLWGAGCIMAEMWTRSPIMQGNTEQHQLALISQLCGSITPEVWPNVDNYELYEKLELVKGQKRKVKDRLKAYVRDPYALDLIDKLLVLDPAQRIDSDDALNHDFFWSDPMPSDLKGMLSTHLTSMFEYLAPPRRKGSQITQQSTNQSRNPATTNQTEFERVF
T1 sequence (O60563 whole entry partner): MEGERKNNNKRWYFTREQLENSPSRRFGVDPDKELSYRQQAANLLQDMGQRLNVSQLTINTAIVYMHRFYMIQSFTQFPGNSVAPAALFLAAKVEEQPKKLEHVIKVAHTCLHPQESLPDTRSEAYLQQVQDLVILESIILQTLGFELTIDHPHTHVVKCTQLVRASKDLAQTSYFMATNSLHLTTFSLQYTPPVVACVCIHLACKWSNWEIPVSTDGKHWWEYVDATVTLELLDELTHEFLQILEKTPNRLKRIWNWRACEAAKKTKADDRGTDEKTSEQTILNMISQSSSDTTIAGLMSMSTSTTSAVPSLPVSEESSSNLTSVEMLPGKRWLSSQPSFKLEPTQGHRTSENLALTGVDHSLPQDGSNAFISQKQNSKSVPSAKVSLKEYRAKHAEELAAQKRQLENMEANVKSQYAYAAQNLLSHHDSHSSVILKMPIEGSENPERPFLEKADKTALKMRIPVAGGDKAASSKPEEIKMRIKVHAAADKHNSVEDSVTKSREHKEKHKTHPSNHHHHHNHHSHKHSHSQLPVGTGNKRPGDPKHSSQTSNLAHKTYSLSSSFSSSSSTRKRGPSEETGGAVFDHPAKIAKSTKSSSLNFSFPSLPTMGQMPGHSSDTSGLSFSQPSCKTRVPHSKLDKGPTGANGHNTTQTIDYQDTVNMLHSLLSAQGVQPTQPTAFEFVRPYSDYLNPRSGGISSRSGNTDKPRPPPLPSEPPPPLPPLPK

| Compound | CDK9 inhibitory effect | IC50 [µM] |
| --- | --- | --- |
| COc1cc(Cl)ccc1-c1cc(Nc2ccc(CNS(C)(=O)=O)cc2)ncn1 [Example 54, N-{4-[6-(4-Chloro-2-methoxy-phenyl)-pyrimidin-4-ylamino]-benzyl}-methanesulfonamide] | nanomolar or low nanomolar range | < 0.1 |
| CS(=O)(=O)NCc1cccc(Nc2cc(-c3ccccc3C(F)(F)F)ncn2)c1 [Example 18, N-{3-[6-(2-Trifluoromethyl-phenyl)-pyrimidin-4-ylamino]-benzyl}-methanesulfonamide] |  | > 10 |
| Cc1ccccc1-c1cc(Nc2cccc(CNS(C)(=O)=O)c2)ncn1 [Example 11, N-[3-(6-o-Tolyl-pyrimidin-4-ylamino)-benzyl]-methanesulfonamide] |  | < 10 |
| COc1cccc(-c2cc(Nc3ccc(CNS(C)(=O)=O)cc3)ncn2)c1 [Example 47, N-{4-[6-(3-Methoxy-phenyl)-pyrimidin-4-ylamino]-benzyl}-methanesulfonamide] |  | < 10 |
| CSc1ccccc1-c1cc(Nc2ccc(CNS(C)(=O)=O)cc2)ncn1 [Example 41, N-{4-[6-(2-Methylsulfanyl-phenyl)-pyrimidin-4-ylamino]-benzyl}-methanesulfonamide] |  | < 1 |
| CS(=O)(=O)NCc1cccc(Nc2cc(-c3cccc(C(N)=O)c3)ncn2)c1 [Example 20, 3-{6-[3-(Methanesulfonylamino-methyl)-phenylamino]-pyrimidin-4-yl}-benzamide] |  | < 10 |
| CS(=O)(=O)NCc1cccc(Nc2cc(-c3ccccc3)ncn2)c1 [Example 21, N-[3-(6-Phenyl-pyrimidin-4-ylamino)-benzyl]-methanesulfonamide] |  | < 10 |
| CC(C)Oc1ccccc1-c1cc(Nc2ccc(CNS(C)(=O)=O)cc2)ncn1 [Example 56, N-{4-[6-(2-Isopropoxy-phenyl)-pyrimidin-4-ylamino]-benzyl}-methanesulfonamide] | nanomolar or low nanomolar range | < 0.1 |
| CS(=O)(=O)NCc1ccc(Nc2cc(-c3ccccc3C(F)(F)F)ncn2)cc1 [Example 43, N-{4-[6-(2-Trifluoromethyl-phenyl)-pyrimidin-4-ylamino]-benzyl}-methanesulfonamide] |  | > 10 |
| Clc1cc(Nc2cccc(Cn3ccc4ccccc43)c2)ncn1 [Example 90, (6-Chloro-pyrimidin-4-yl)-(3-indol-1-ylmethyl-phenyl)-amine] |  | > 10 |
| CS(=O)(=O)NCc1cccc(Nc2cc(-c3cn[nH]c3)ncn2)c1 [Example 32, N-{3-[6-(1H-Pyrazol-4-yl)-pyrimidin-4-ylamino]-benzyl}-methanesulfonamide] |  | < 1 |
| CS(=O)(=O)NCc1ccc(Nc2cc(Cl)ncn2)cc1 [Example 33, N-[4-(6-Chloro-pyrimidin-4-ylamino)-benzyl]-methanesulfonamide] |  | > 10 |
| Clc1cc(Nc2ccc(Cn3cnc4ccccc43)cc2)ncn1 [Example 86, (4-Benzoimidazol-1-ylmethyl-phenyl)-(6-chloro-pyrimidin-4-yl)-amine] |  | > 10 |
| CS(=O)(=O)NCc1cccc(Nc2cc(-c3cccc(N)c3)ncn2)c1 [Example 22, N-{3-[6-(3-Amino-phenyl)-pyrimidin-4-ylamino]-benzyl}-methanesulfonamide] |  | < 1 |

More lines, now with the values ahead:

| CDK9 inhibitory effect | IC50 [µM] | Compound |
| --- | --- | --- |
| nanomolar or low nanomolar range | < 0.1 | COc1ccccc1-c1cc(Nc2cccc(CN)c2)ncn1 [Example 69, (3-Aminomethyl-phenyl)-[6-(2-methoxy-phenyl)-pyrimidin-4-yl]-amine hydrochloride] |
| nanomolar or low nanomolar range | < 0.1 | CCOc1ccccc1-c1cc(Nc2cccc(CNS(C)(=O)=O)c2)ncn1 [Example 5, N-{3-[6-(2-Ethoxy-phenyl)-pyrimidin-4-ylamino]-benzyl}-methanesulfonamide] |
| nanomolar or low nanomolar range | < 0.1 | COc1cc(F)ccc1-c1cc(Nc2cccc(Cn3cnc4ccccc43)c2)ncn1 [Example 65, (3-Benzoimidazol-1-ylmethyl-phenyl)-[6-(4-fluoro-2-methoxy-phenyl)-pyrimidin-4-yl]-amine] |
|  | < 0.1 | CC(C)Oc1cc(F)ccc1-c1cc(Nc2cccc(CNc3nc4ccccc4[nH]3)c2)ncn1 [Example 77, (1H-Benzoimidazol-2-yl)-{3-[6-(4-fluoro-2-isopropoxy-phenyl)-pyrimidin-4-ylamino]-benzyl}-amine] |
|  | < 1 | CSc1ccccc1-c1cc(Nc2cccc(CNS(C)(=O)=O)c2)ncn1 [Example 28, N-{3-[6-(2-Methylsulfanyl-phenyl)-pyrimidin-4-ylamino]-benzyl}-methanesulfonamide] |
|  | < 1 | COc1ccc(F)cc1-c1cc(Nc2cccc(CNc3nc4ccccc4[nH]3)c2)ncn1 [Example 62, (1H-Benzoimidazol-2-yl)-{3-[6-(5-fluoro-2-methoxy-phenyl)-pyrimidin-4-ylamino]-benzyl}-amine] |
|  | < 1 | CS(=O)(=O)NCc1cccc(Nc2cc(-c3ccccc3OCc3ccc(F)cc3)ncn2)c1 [Example 10, N-(3-{6-[2-(4-Fluoro-benzyloxy)-phenyl]-pyrimidin-4-ylamino}-benzyl)-methanesulfonamide] |
| nanomolar or low nanomolar range | < 0.1 | CCCS(=O)(=O)NCc1cccc(Nc2cc(-c3ccccc3OC)ncn2)c1 [Example 71, Propane-1-sulfonic acid 3-[6-(2-methoxy-phenyl)-pyrimidin-4-ylamino]-benzylamide] |
|  | < 1 | CS(=O)(=O)NCc1cccc(Nc2cc(-c3ccccc3Oc3ccccc3)ncn2)c1 [Example 4, N-{3-[6-(2-Phenoxy-phenyl)-pyrimidin-4-ylamino]-benzyl}-methanesulfonamide] |
|  | < 1 | COc1ccccc1-c1cc(Nc2ccc(Cn3cnc4ccccc43)cc2)ncn1 [Example 87, (4-Benzoimidazol-1-ylmethyl-phenyl)-[6-(2-methoxy-phenyl)-pyrimidin-4-yl]-amine] |
|  | < 1 | COc1ccc(F)cc1-c1cc(Nc2ccc(CNS(C)(=O)=O)cc2)ncn1 [Example 38, N-{4-[6-(5-Fluoro-2-methoxy-phenyl)-pyrimidin-4-ylamino]-benzyl}-methanesulfonamide] |
|  | < 1 | CC(C)Oc1ccccc1-c1cc(Nc2cccc(CNS(C)(=O)=O)c2)ncn1 [Example 8, N-{3-[6-(2-Isopropoxy-phenyl)-pyrimidin-4-ylamino]-benzyl}-methanesulfonamide] |
|  | < 1 | COc1cc(F)ccc1-c1cc(Nc2cccc(CNc3nc4ccccc4[nH]3)c2)ncn1 [Example 61, (1H-Benzoimidazol-2-yl)-{3-[6-(4-fluoro-2-methoxy-phenyl)-pyrimidin-4-ylamino]-benzyl}-amine] |
|  | > 10 | Clc1cc(Nc2cccc(CNc3nc4ccccc4[nH]3)c2)ncn1 [Example 59, (1H-Benzoimidazol-2-yl)-[3-(6-chloro-pyrimidin-4-ylamino)-benzyl]-amine] |
